Reference: patent publication US20030220232A1, “Peptide and nucleic acid coding therefor for the detection, diagnosis and therapy of diseases of the nervous system” (priority 2000, published 2003)
pIC50: −log10 of the molar value.

Experiments:
[1] = test system: sodium ion channels; test: Neuroinhibitory assay: inhibition of sodium currents, whole cell mode, differentiated NH15-CA2 neuroblastoma-x-glioma cells; format: cell-based; settings: for concentration of solution with corresponding electrophysiological action on neuronal sodium channels: 10 μM peptide solution corresponds to 50 μM lidocaine solution
From the text: “Neuroinhibitory activity” here means the capacity of a substance for blocking sodium ion channels. Neuroinhibitory activity can be measured in this connection by the inhibition of sodium ion currents through potential-dependent sodium ion channels. (Review article by Lehmann-Horn et al. in Rev. Physiol. Biochem. Pharmacol. 128; (1996), 198-268). The experimental conditions for measurement of the neuroinhibitory activity are described, for example, in Brinkmeier et al., Muscle and Nerve 19 (1996), 54-62. Neuroinhibitory activity can be determined using differentiated NH15-CA2 [neuroblastoma×glioma] cells (Hamprecht et al., Meth. Enzymol. 109 (1985), 316-41; Brinkmeier et al., Muscle Nerve 19 (1996), 54-62).
The neuroinhibitory activity was determined by the inhibition of sodium ion channels using differentiated NH15-CA2 neuroblastoma-x-glioma cells. The culture conditions and morphological and physiological parameters of the differentiation of these cells are known (Hamprecht et al., Meth. Enzymol. 109 (1985), 316-41). For the assay, the cells were transferred into a hydrophobic test dish which was filled with standard external liquid (140 mM NaCl; 3.5 mM KCl; 1.0 mM CaCl2; 1.0 mM MgCl2; 2 mM HEPES, pH 7.4). The dish was on the platen of an inverted microscope for observation of the cells, while these were treated with pipettes which were filled with internal solution (140 mM CsCl; 1.4 mM MgCl2; 10 mM EGTA and 10 mM HEPES (peak resistances: […])). The sodium currents were induced and recorded in the whole cell mode. The determination of the maximum current amplitudes as a response to repetitive rectangular pulses from −85 to −20 mV lasting 8 ms before, during and after administration of the test solution can be used as a rapid test for the neuroinhibitory activity. The decrease in the current was recorded in three to five cells and the means were determined. An extended test consisted of determination of the “steady-state” activation and inactivation parameters of sodium ion channels. To determine the dependence of the activation on potential, a cyclic pulse program was used, which comprised pre-pulses which depolarized the cells from an HP (holding potential) of −85 mV to −135 mV over 100 ms, and subsequent variable test pulses which depolarized for 8 ms in 4 mV steps from −65 to +31 mV. For the dependence of the inactivation on potential, a similar program was used, which comprised a fixed 100 ms conditioning pulse at −135 mV, a variable 32 ms prepulse in the course of −135 to −19 mV in 4 mV steps and a constant test pulse which depolarized the cells to −20 mV. The size of the left shift of the h curve in the presence of test solutions was used as a measured of the inhibition of the sodium ion channels.
The neuroinhibitory activity of the synthetic peptide with the sequence (SEQ ID NO:1) was determined by the inhibition of the sodium currents by ion channels which were induced by 1 Hz rectangular pulses from […]. […] In each case the mean with the standard deviation is shown.

[2] = target: sodium ion channels of differentiated NH15-CA2 neuroblastoma-x-glioma cells; test: cell-based or functional assay

Compound: Gln-Tyr-Asn-Asp-Ala (QYNDA) [SEQ ID NO:2]
- neuroinhibitory activity in respect of sodium ion channels (in words) [1]: does not have a neuroinhibitory activity

Compound: Gln-Tyr-Asn-Ala-Asp (QYNAD) [SEQ ID NO:1]
- concentration at saturation of the neuroinhibitory effect [1]: 100 µM
- neuroinhibitory activity compared with lidocaine [1]: significantly higher
- neuroinhibitory activity in respect of sodium ion channels (in words) [1]: blocks their sodium currents
- concentration of solution with corresponding electrophysiological action on neuronal sodium channels [1]: 10 μM
- peptide-mediated blocking of the ion channel (time course) ([1]; NH15-CA2 cells): rapid and reversible
- pIC50 ([1]; NH15-CA2 cells, currents induced by 1 Hz rectangular pulses, seven measurements, read-out: peptide concentration giving half-maximum inhibition of the sodium ion currents): > 5.00

Compound: synthetic peptide Gln-Tyr-Asn-Ala-Asp (SEQ ID NO: 1)
- half-maximum inhibition of the sodium ion currents [2]: < 10 µM
- saturation of the peptide effect [2]: 100 µM

Compound: CCN(CC)CC(=O)Nc1c(C)cccc1C [lidocaine, reference compound]
- concentration of solution with corresponding electrophysiological action on neuronal sodium channels [1]: 50 μM
